Measurements published in patent publication US4943574A, “(1H-azol-1-ylmethyl) substituted benzotriazole derivatives and pharmaceutical compositions containing them” (Janssen Pharmaceutica N.V., priority 1989, dated 1990).
Where a name gives a salt, the structure may show the parent alone. Read-outs that look alike come from different tables or passages of the source.

Key:
aromatase [1] = target: T1, aromatase (Homo sapiens, UniProt P11511); assay: biochemical; conditions: read-out: IC50-values (concentration of the compound required to obtain 50% inhibition of the estrogen synthesis)
T1 sequence (P11511 1-503): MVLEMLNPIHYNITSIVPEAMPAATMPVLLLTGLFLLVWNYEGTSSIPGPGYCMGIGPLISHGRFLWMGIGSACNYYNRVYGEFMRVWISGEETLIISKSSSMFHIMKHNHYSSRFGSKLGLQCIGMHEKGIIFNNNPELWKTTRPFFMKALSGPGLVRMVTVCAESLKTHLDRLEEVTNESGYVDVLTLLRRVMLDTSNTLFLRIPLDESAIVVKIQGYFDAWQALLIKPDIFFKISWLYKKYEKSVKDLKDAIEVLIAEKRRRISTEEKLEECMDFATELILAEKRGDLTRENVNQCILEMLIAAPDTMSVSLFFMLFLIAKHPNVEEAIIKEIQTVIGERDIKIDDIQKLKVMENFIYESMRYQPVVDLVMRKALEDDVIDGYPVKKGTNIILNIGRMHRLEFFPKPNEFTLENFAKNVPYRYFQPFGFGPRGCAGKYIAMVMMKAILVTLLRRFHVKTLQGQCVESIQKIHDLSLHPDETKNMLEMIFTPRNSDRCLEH
Description: Human placental microsomes were diluted in potassium phosphate buffer (0.1M, pH 7.4) to give about 50% conversion of androgens to estrogens (protein content: about 0.5 mg). Four ml human placental microsomes were incubated in a final volume of 5 ml with 0.2 μCi1,2[3H]-androstenedione, 2 μg androstendione and 5 μl of test compound and/or dimethyl sulfoxide (DMSO). […] The reaction was initiated by the addition of androstenedione and proceeded for 30 min at 37° C. During the incubation period, the mixtures were gassed with air. In this assay, aromatization of androstenedione results in the production of [3H]-H2 O which is isolated by extracting the samples with chloroform to remove the free steroid.

aromatase [2] = assay: In vivo-inhibition of the aromatase activity (plasma estradiol in PMSG-injected immature female Wistar rats); set-up: species or system rat (immature female Wistar rats)
Description: Immature female Wistar rats weighing 120 g were injected subcutaneously with 200 I.U. of pregnant mare's serum gonadotropin (PMSG). […] Control animals received 20% polyethyleneglycol only. Two hours following drug or placebo administration the rats were killed by decapitation and trunk blood was collected on heparine. Plasma estradiol concentrations were measured by standard radio-immunological procedures.

[3] = human placental microsomes, 30 min at 37° C., pH 7.4, 1,2[3H]androstenedione
[4] = 1 mg/kg oral gavage, two hours following administration, PMSG-injected immature female Wistar rats

Row | SMILES | IC50 (aromatase [1]; [3]) [nM] | % recovery estradiol (plasma estradiol relative to the controls) (aromatase [2]; [4]) [%] | % recovery estradiol (plasma estradiol relative to the controls) (aromatase [2]; rat, in vivo) [%] | IC50 (aromatase [1]) [nM]
1 | c1cncc(COn2nnc3ccc(Cn4ccnc4)cc32)c1 [Compound 196] | 11 |  |  | 
2 | CC(C)n1nnc2ccc(Cn3ccnc3)cc21 [Compound 87] | 26.9 | 5 |  | 
3 | CC(C)n1nnc2ccc(C(c3ccc(Cl)cc3)n3ccnc3)cc21 (centres unmarked) [Compound 116] | 24.9 | 20 |  | 
4 | CCCC(c1ccc2nnn(C)c2c1)n1ccnc1 (centres unmarked) [Compound 31] | 34.2 | 8 |  | 
5 | Fc1ccc(C(c2ccc3[nH]nnc3c2)n2ccnc2)cc1 (centres unmarked) [Compound 113] | 18.8 | 4 |  | 
6 | BrCCOn1nnc2ccc(Cn3ccnc3)cc21 [Compound 204] | 9.2 | 19 |  | 
7 | CCCCOn1nnc2ccc(Cn3ccnc3)cc21.Cl [Compound 226, 1-butoxy-6-(1H-imidazol-1-ylmethyl)-1H-benzotriazole monohydrochloride] | 6.7 | 19 |  | 
8 | COc1ccc(C(c2ccc3nnn(C)c3c2)n2ccnc2)cc1 (centres unmarked) [Compound 59] | 18 |  |  | 
9 | CC(C)On1nnc2ccc(C(c3ccccc3)n3ccnc3)cc21 (centres unmarked) [Compound 2] | 16 | 20 |  | 
10 | c1cn(Cc2ccc3nnn(C4CC5CCC4C5)c3c2)cn1 (centres unmarked) [Compound 103] | 16.3 | 5 |  | 
11 | Cn1nnc2ccc(C(c3cccc(Br)c3)n3ccnc3)cc21 (centres unmarked) [Compound 50] | 18.3 | 1 |  | 
12 | c1ccc(-c2ccc(COn3nnc4ccc(Cn5ccnc5)cc43)cc2)cc1 [Compound 191] | 23.4 |  |  | 
13 | Cn1nnc2ccc(C(c3ccc(C(F)(F)F)cc3)n3ccnc3)cc21 (centres unmarked) [Compound 55] | 18.8 | 3 |  | 
14 | Cn1nnc2ccc(C(c3cccc(F)c3)n3ccnc3)cc21 (centres unmarked) [Compound 33] | 24.6 | 5 |  | 
15 | COCCOn1nnc2ccc(Cn3ccnc3)cc21 [Compound 220, 6-(1H-imidazol-1-ylmethyl)-1-(2-methoxyethoxy)-1H-benzotriazole] | 20 |  |  | 
16 | Clc1ccc(C(c2ccc3nnn(-c4ccccc4)c3c2)n2ccnc2)cc1.O=[N+]([O-])O (centres unmarked) |  |  | 21 | 
17 | CCn1nnc2ccc(Cn3ccnc3)cc21 [Compound 102] | 31.7 | 2 |  | 
18 | CCCCn1nnc2ccc(C(c3ccc(Cl)cc3)n3ccnc3)cc21 (centres unmarked) [Compound 15] | 22.6 | 2 |  | 
19 | c1ccc(COn2nnc3ccc(C(c4ccccc4)n4ccnc4)cc32)cc1 (centres unmarked) [Compound 188] | 18.2 |  |  | 
20 | CCCCCOn1nnc2ccc(Cn3ccnc3)cc21 [Compound 201] | 6.7 | 19 |  | 
21 | c1csc(Cn2nnc3ccc(Cn4ccnc4)cc32)c1 [Compound 111] | 14.3 | 19 |  | 
22 | Cn1nnc2ccc(C(c3ccc(Br)cc3)n3ccnc3)cc21 (centres unmarked) [Compound 51] | 22.2 | 7 |  | 
23 | Cn1nnc2ccc(C(c3cccc(Cl)c3)n3ccnc3)cc21 (centres unmarked) [Compound 28] | 25.3 | 6 |  | 
24 | CC(C)On1nnc2ccc(Cn3ccnc3)cc21 [Compound 195, 6-(1H-imidazol-1-ylmethyl)-1-(1-methylethoxy)-1H-benzotriazole] | 12 | 19 |  | 
25 | CCCCCCOn1nnc2ccc(Cn3ccnc3)cc21 [Compound 202] | 7.1 | 21 |  | 
26 | CCOn1nnc2ccc(Cn3ccnc3)cc21.Cl [Compound 225, 1-ethoxy-6-(1H-imidazol-1-ylmethyl)-1H-benzotriazole monohydrochloride] | 10 | 19 |  | 

Row | SMILES | IC50 (aromatase [1]; [3]) [nM] | % recovery estradiol (plasma estradiol relative to the controls) (aromatase [2]; [4]) [%] | % recovery estradiol (plasma estradiol relative to the controls) (aromatase [2]; rat, in vivo) [%] | IC50 (aromatase [1]) [nM]
27 | Clc1ccc(C(c2ccc3nnn(-c4ccccc4)c3c2)n2ccnc2)cc1.O=[N+]([O-])O (centres unmarked) [mononitrate] |  |  |  | 17.6
28 | Clc1ccc(Cn2nnc3ccc(Cn4ccnc4)cc32)cc1 [Compound 91] | 8.8 |  |  | 
29 | Cn1nnc2ccc(C(c3ccccc3)n3ccnc3)cc21 (centres unmarked) [Compound 90] | 22.7 | 5 |  | 
30 | CCCCCCCOn1nnc2ccc(Cn3ccnc3)cc21 [Compound 206] | 8 |  |  | 
31 | Cn1nnc2ccc(C(c3ccc(F)cc3)n3ccnc3)cc21 (centres unmarked) [Compound 29] | 15.9 | 7 |  | 
32 | OCCCn1nnc2ccc(Cn3ccnc3)cc21 [Compound 109] | 26.2 |  |  | 
33 | CCCCCCCCCOn1nnc2ccc(Cn3ccnc3)cc21 [Compound 203] | 17 |  |  | 
34 | Cn1nnc2ccc(C(c3ccccc3)n3ccnc3)cc21 (centres unmarked) [Compound 7] | 25.7 | 7 |  | 
35 | Cn1nnc2ccc(C(c3ccc(Cl)cc3)n3ccnc3)cc21 (centres unmarked) [Compound 48] | 16.6 | 6 |  | 
36 | c1cn(Cc2ccc3nnn(CC4CC4)c3c2)cn1 [Compound 108] | 15.2 | 3 |  | 
37 | c1ccc(C(c2ccc3nnn(C4CCCCC4)c3c2)n2ccnc2)cc1 (centres unmarked) [Compound 104] | 20.6 | 9 |  | 
38 | c1ccc(COn2nnc3ccc(Cn4ccnc4)cc32)cc1 [Compound 228, 6-(1H-imidazol-1-ylmethyl)-1-(phenylmethoxy)-1H-benzotriazole] | 5.2 |  |  | 
39 | CCOn1nnc2ccc(C(c3ccccc3)n3ccnc3)cc21 (centres unmarked) [Compound 4] | 16 |  |  | 
40 | C#CCOn1nnc2ccc(Cn3ccnc3)cc21 [Compound 179] | 23.2 |  |  | 
41 | CC(C)CCn1nnc2ccc(C(c3ccc(Cl)cc3)n3ccnc3)cc21 (centres unmarked) [Compound 120] | 8.9 |  |  | 
42 | CCCCn1nnc2ccc(C(c3ccccc3)n3ccnc3)cc21.O=C(O)C(=O)O (centres unmarked) [Compound 75, 1-butyl-6-[(1H-imidazol-1-yl)phenylmethyl]-1H-benzotriazole ethanedioate(1:1)] | 24.2 | 27 |  | 
43 | Cc1cncn1C(c1ccccc1)c1ccc2nnn(OCc3ccccc3)c2c1 (centres unmarked) [Compound 213] | 36.2 |  |  | 
44 | CCCn1nnc2ccc(Cn3ccnc3)cc21 [Compound 89] | 15 | 5 |  | 
45 | CCCOn1nnc2ccc(Cn3ccnc3)cc21 [Compound 227, 6-(1H-imidazol-1-ylmethyl)-1-propoxy-1H-benzotriazole monohydrochloride. hemihydrate] | 7.4 | 19 |  | 
46 | CCCCOn1nnc2ccc(C(c3ccccc3)n3ccnc3)cc21 (centres unmarked) [Compound 6] | 12 |  |  | 
47 | c1ccc(CCOn2nnc3ccc(Cn4ccnc4)cc32)cc1 [Compound 208] | 11 |  |  | 
48 | CCC(C)On1nnc2ccc(Cn3ccnc3)cc21 (centres unmarked) [Compound 197] | 11 |  |  | 
49 | c1ccc(SCOn2nnc3ccc(Cn4ccnc4)cc32)cc1 [Compound 176] | 12 |  |  | 
50 | CCCCn1nnc2ccc(C(c3cccc(Cl)c3)n3ccnc3)cc21 (centres unmarked) [Compound 23] | 7.5 |  |  | 
51 | CCOC(=O)COn1nnc2ccc(Cn3ccnc3)cc21 [Compound 198] | 18 |  |  | 
